The target of one experiment is human TLR7 (Homo sapiens (Human), UniProt Q9NYK1). The experiment is described as follows: HEK293-Blue-hTLR-7 cells assay. The class given is cell-based. The following applies: HEK293-Blue-hTLR7 cells, R848 stimulation, 20 hrs, SEAP reporter; read-out: HEK/hTLR7 IC50. An excerpt:
(§1) A stable HEK293-Blue-hTLR-7 cell line was purchased from InvivoGen (Cat. #: hkb-htlr7, San Diego, Calif., USA). These cells were originally designed for studying the stimulation of human TLR7 by monitoring the activation of NF-κB. A SEAP (secreted embryonic alkaline phosphatase) reporter gene was placed under the control of the IFN-β minimal promoter fused to five NF-κB and AP-1-binding sites. The SEAP was induced by activating NF-κB and AP-1 via stimulating HEK-Blue hTLR7 cells with TLR7 ligands. Therefore the reporter expression was declined by TLR7 antagonist under the stimulation of a ligand, such as R848 (Resiquimod), for incubation of 20 hrs. The cell culture supernatant SEAP reporter activity was determined using QUANTI-Blue™ kit (Cat. #: rep-qb1, Invivogen, San Diego, Ca, USA) at a wavelength of 640 nm, a detection medium that turns purple or blue in the presence of alkaline phosphatase.
(§2) HEK293-Blue-hTLR7 cells were incubated at a density of 250,000˜450,000 cells/mL in a volume of 170 μL in a 96-well plate in Dulbecco's Modified Eagle's medium (DMEM) containing 4.5 g/L glucose, 50 U/mL penicillin, […], […], 2 mM L-glutamine, 10% (v/v) heat-inactivated fetal bovine serum with addition of 20 μL test compound in a serial dilution in the presence of final DMSO at 1% and 10 μL of 20 uM R848 in above DMEM, perform incubation under 37° C. in a CO2 incubator for 20 hrs. Then 20 μL of the supernatant from each well was incubated with 180 μL Quanti-blue substrate solution at 37° C. for 2 hrs and the absorbance was read at 620-655 nm using a spectrophotometer. The signaling pathway that TLR7 activation leads to downstream NF-κB activation has been widely accepted, and therefore similar reporter assay was modified for evaluating TLR7 antagonist.

A further experiment has as its target human TLR8 (Homo sapiens (Human), UniProt Q9NR97). The experiment is described as follows: HEK293-Blue-hTLR-8 cells assay. In kind it is cell-based. The following applies: HEK293-Blue-hTLR8 cells, R848 stimulation, 20 hrs, SEAP reporter; read-out: HEK/hTLR8 IC50.
Excerpt: as §1, with “HEK293-Blue-hTLR-8” for “HEK293-Blue-hTLR-7”, “hkb-htlr8,” for “hkb-htlr7,”, “TLR8” for “TLR7”, “hTLR8” for “hTLR7”, “R848,” for “R848 (Resiquimod),”, “rep-gb1,” for “rep-qb1,”
as §2, with “HEK293-Blue-hTLR8 cells were” for “HEK293-Blue-hTLR7 cells were”, “μL of 60 uM R848” for “μL of 20 uM R848”, “read at 620655 nm using” for “read at 620-655 nm using”, “pathway that TLR8 activation leads” for “pathway that TLR7 activation leads”, “for evaluating TLR8 antagonist.” for “for evaluating TLR7 antagonist.”

The target of the next experiment is TLR9 (Homo sapiens (Human), UniProt Q9NR96). Description: Human PBMC cell-based assay, TLR9. The following applies: CpG ODN 2216 at 1 μM, overnight, cytokine readout, read-out: hPBMC/TLR9 IC50. An excerpt:
Unlike the HEK reporter cell lines, human peripheral blood mononuclear cell (PBMC) represents primary human immune cells in blood mainly consisting of lymphocytes, monocytes, and dendritic cells. These cells express TLR7, TLR8, or TLR9, and therefore are natural responders to respective ligand stimulation. Upon activation of these TLRs, PBMCs secrete similar cytokines and chemokines in vitro and in vivo, and therefore the in vitro potency of a TLR7/8/9 antagonist in human PBMC is readily translatable to its pharmacodynamics response in vivo.
Human peripheral blood mononuclear cells (PBMC) were isolated from freshly-drawn lithium-heparinized (Lithium Heparin Plus blood Collection tube, BD Vacutainer®) healthy donor whole blood by density gradient (Ficoll-Paque™ PLUS, GE Healthcare life Sciences). Briefly, […] was diluted with 25 mL PBS (without Ca^2+, Mg^2+) in a 50 mL conical tube with porous barrier (Leucosep tube, Greiner bio-one), where 15.5 mL Ficoll-Paque was under laid after spinning. Tubes were centrifuged for 20 minutes at 800×g (1946 rpm) with the brake in the off position, and PBMC were collected from the buffy coat. Cells were then washed twice in PBS, and red blood cells were lysed by suspension in 2 mL (Red Blood Cell Lysis Buffer, Alfa Aesar) for 5-10 minutes at room temperature. After a final wash in PBS, PBMC were resuspended at a final concentration of 2×10^6 cells/mL in RPMI-1640 media with GlutaMAX™ (Gibco) supplemented with 10% Fetal Bovine Serum (Sigma) and plated at 150 μL/well (3×10^5 cells/well) in tissue culture treated round bottom 96-well plates (Corning Incorporated). Antagonist compounds (compounds of this invention) solubilized and serial diluted in 100% DMSO were added in duplicate to cells to yield a final concentration of 1% DMSO (v/v). PBMC were incubated with antagonist compounds for 30 minutes at 37° C., 5% CO2 before adding various TLR agonist reagents in 48 μL complete media per well as follows (final concentrations indicated): CpG ODN 2216 (InvivoGen) at 1 μM for TLR9, ORN 06/LyoVec (InvivoGen) at 1 μg/mL for TLR8 and R848 (InvivoGen) at 1 μg/mL for TLR7 and TLR8. PBMC were incubated overnight at 37° C. with 5% CO2. Cell culture supernatants were collected, and levels of various human cytokines were assessed by Luminex assay (ProcartaPlex™ Multiplex Immunoassay, Invitrogen) or ELISA procedure according to the manufacturer's recommended protocol (eBioscience, ThermoFisher Scientific). Viability of the cells was also checked with Cell Viability Assay (CellTiter Glo®Luminescent Cell Viability Assay, Promega).

human TLR7, sequence (Q9NYK1 27-1049): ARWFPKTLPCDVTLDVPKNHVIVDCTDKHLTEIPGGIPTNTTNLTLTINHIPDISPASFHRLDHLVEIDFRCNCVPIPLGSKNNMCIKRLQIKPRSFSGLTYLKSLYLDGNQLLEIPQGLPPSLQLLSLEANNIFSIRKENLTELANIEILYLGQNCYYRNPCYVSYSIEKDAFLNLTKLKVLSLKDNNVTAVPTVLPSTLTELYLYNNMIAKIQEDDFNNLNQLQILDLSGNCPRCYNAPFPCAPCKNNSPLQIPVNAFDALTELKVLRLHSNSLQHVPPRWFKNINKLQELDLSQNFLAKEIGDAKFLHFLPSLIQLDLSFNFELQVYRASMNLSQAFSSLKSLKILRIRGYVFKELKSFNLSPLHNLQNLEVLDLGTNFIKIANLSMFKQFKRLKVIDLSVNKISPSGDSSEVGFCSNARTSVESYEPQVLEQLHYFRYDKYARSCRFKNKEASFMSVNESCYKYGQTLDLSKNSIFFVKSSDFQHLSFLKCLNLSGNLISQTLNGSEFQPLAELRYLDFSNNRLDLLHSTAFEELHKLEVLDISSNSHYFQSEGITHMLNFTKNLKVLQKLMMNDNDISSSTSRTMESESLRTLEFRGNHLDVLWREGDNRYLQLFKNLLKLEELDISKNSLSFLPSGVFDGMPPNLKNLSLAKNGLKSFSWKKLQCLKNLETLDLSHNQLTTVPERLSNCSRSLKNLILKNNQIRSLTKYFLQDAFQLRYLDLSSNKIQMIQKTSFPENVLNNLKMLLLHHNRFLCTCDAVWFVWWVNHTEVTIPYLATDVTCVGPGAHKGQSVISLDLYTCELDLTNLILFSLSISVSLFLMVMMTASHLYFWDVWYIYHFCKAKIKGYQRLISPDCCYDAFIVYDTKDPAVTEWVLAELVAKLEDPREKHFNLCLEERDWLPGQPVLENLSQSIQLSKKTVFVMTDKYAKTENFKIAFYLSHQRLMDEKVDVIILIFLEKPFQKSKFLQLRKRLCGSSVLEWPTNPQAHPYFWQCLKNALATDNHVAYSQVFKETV
TLR9, sequence (Q9NR96 26-1032): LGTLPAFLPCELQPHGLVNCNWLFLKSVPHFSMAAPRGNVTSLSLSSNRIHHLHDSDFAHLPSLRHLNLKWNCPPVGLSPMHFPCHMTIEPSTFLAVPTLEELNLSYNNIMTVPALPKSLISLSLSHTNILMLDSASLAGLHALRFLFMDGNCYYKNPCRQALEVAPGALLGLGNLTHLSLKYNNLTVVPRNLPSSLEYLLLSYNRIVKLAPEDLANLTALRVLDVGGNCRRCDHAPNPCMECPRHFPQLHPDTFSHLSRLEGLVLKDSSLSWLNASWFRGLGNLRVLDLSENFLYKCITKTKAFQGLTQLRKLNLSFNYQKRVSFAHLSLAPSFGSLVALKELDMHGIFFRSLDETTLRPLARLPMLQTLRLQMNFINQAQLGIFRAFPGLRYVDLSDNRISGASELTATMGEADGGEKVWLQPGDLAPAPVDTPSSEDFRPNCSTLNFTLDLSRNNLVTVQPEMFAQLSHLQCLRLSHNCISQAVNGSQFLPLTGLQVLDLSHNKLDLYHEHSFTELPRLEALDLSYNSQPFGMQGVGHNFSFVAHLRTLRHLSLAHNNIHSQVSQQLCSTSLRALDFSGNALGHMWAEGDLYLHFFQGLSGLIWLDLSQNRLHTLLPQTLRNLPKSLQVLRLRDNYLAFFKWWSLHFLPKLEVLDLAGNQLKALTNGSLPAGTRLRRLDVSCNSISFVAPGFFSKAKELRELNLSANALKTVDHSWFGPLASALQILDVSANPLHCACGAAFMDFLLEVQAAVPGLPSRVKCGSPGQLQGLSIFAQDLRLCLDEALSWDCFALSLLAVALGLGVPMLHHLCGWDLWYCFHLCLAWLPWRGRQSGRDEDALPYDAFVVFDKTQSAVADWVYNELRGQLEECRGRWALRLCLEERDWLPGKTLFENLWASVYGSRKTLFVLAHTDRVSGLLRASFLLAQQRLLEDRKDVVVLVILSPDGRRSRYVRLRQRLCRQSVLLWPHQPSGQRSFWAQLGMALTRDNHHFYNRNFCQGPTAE
human TLR8, sequence (Q9NR97 27-1041): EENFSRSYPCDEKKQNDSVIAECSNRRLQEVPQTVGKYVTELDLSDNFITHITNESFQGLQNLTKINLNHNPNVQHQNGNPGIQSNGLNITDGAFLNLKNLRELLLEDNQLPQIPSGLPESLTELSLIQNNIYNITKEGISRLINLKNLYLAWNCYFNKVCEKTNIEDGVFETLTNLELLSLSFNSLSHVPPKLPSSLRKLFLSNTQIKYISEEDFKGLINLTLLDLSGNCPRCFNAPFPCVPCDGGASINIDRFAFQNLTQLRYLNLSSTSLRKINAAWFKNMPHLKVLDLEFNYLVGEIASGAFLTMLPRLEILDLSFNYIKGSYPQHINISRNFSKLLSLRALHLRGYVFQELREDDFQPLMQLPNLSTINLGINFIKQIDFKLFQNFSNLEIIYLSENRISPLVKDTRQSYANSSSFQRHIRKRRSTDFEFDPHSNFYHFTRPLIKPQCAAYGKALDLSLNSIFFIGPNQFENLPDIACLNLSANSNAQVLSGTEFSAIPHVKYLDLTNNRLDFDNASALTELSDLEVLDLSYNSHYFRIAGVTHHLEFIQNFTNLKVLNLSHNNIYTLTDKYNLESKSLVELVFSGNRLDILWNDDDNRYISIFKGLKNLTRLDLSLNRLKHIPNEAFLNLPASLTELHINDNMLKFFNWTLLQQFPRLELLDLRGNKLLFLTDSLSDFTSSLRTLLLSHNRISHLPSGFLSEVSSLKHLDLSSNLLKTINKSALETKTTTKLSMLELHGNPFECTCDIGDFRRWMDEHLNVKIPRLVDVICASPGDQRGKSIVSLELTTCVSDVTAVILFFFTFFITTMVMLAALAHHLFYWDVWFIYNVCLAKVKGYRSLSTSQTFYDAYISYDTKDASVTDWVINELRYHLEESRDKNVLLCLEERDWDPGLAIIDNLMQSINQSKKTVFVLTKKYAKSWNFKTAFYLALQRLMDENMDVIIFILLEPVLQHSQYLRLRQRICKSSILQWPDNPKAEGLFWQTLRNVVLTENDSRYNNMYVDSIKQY

`Cc1cc(-c2ccc(N3CCC(N4CCNCC4)CC3)nc2C(C)C)cn2ccnc12` [Example 2, 6-[2-isopropyl-6-(4-piperazin-1-yl-1-piperidyl)-3-pyridyl]-8-methyl-imidazo[1,2-a]pyridine]: the IC50 came out at 1.6 nM on human TLR7 and 1.3 nM on human TLR8.

Take `Cc1cn2cc(-c3ccc(N4CCC(N5CCNCC5)CC4)nc3C(C)C)cc(C)c2n1` [Example 3, 6-[2-isopropyl-6-(4-piperazin-1-yl-1-piperidyl)-3-pyridyl]-2,8-dimethyl-imidazo[1,2-a]pyridine]: the results for the IC50 at human TLR7 and on human TLR8 were 5.8 nM and 1.2 nM, respectively.

In the case of `Cc1cn2cc(-c3ccc(N4CCC(N)CC4)nc3C(C)C)cc(C)c2n1` [Example 4, 1-[5-(2,8-dimethylimidazo[1,2-a]pyridin-6-yl)-6-isopropyl-2-pyridyl]piperidin-4-amine], the IC50 at human TLR7 amounted to 8.9 nM; at human TLR8 it was 2.9 nM.

Regarding `Cc1cn2cc(-c3ccc(N4CCNC[C@H]4CO)nc3C(C)C)cc(C)c2n1` [Example 5, [(2S)-1-[5-(2,8-dimethylimidazo[1,2-a]pyridin-6-yl)-6-isopropyl-2-pyridyl]piperazin-2-yl]methanol], the IC50 stood at 21.4 nM at human TLR7 and 30.4 nM at human TLR8.

In the case of `Cc1c(-c2ccc(N3CCC(N4CCNCC4)CC3)nc2C(C)C)cn2ccnc2c1C` [Example 7, 6-[2-isopropyl-6-(4-piperazin-1-yl-1-piperidyl)-3-pyridyl]-7,8-dimethyl-imidazo[1,2-a]pyridine], the figures for the IC50 at human TLR7 and at human TLR8 were 22.7 nM and 8.6 nM, respectively.

For `Cc1cn2cc(-c3ccc(N4CCN5CCNCC5C4)nc3C(C)C)cc(C)c2n1` (centres unmarked) [Example 8, 2-[5-(2,8-dimethylimidazo[1,2-a]pyridin-6-yl)-6-isopropyl-2-pyridyl]-1,3,4,6,7,8,9,9a-octahydropyrazino[1,2-a]pyrazine], the IC50 on human TLR7 worked out at 6.7 nM; on human TLR8, 2.3 nM.

Turning to `Cc1cc(-c2cc(C)c3nccn3c2)cnc1N1CCC(N2CCN(C)CC2)CC1` [Example 9, 8-methyl-6-[5-methyl-6-[4-(4-methylpiperazin-1-yl)-1-piperidyl]-3-pyridyl]imidazo[1,2-a]pyridine], the IC50 came out at 13.2 nM at human TLR7, 10.7 nM at human TLR8 and 500 nM on TLR9.

As to `Cc1cc(-c2ccc(N3CCC(N4CCNCC4)CC3)nc2C(F)F)cn2ccnc12` [Example 10, 6-[2-(difluoromethyl)-6-(4-piperazin-1-yl-1-piperidyl)-3-pyridyl]-8-methyl-imidazo[1,2-a]pyridine], the IC50 on human TLR7 came out at 1.9 nM; at human TLR8 it was 2.8 nM.

Take `Cc1cn2cc(-c3ccc(N4CCC(N5CCNCC5)CC4)nc3C(F)F)cc(C)c2n1` [Example 11, 6-[2-(difluoromethyl)-6-(4-piperazin-1-yl-1-piperidyl)-3-pyridyl]-2,8-dimethyl-imidazo[1,2-a]pyridine]: the results for the IC50 at human TLR7 and at human TLR8 were 16.3 nM and 16.8 nM, respectively.

`Cc1cn2cc(-c3ccc(N4CCC(N5CC(C)(N)C5)CC4)nc3C(F)F)cc(C)c2n1` [Example 12, 1-[1-[6-(difluoromethyl)-5-(2,8-dimethylimidazo[1,2-a]pyridin-6-yl)-2-pyridyl]-4-piperidyl]-3-methyl-azetidin-3-amine]: the IC50 at human TLR7 stood at 16.3 nM; at human TLR8, 1.1 nM; at TLR9 it was 290 nM.

On to `CCc1nc(N2CCC(N3CC4(CNCCO4)C3)CC2)ccc1-c1cc(C)c2nccn2c1` [Example 14, 2-[1-[6-ethyl-5-(8-methylimidazo[1,2-a]pyridin-6-yl)-2-pyridyl]-4-piperidyl]-5-oxa-2,8-diazaspiro[3.5]nonane], for which the values for the IC50 on human TLR7, at human TLR8 and at TLR9 were 3.9 nM, 0.4 nM and 250 nM, respectively.

`CCc1nc(N2CCC(N3C[C@@H](N)[C@H](OC)C3)CC2)ccc1-c1cc(C)c2nccn2c1` [Example 15, (3R,4R)-1-[1-[6-ethyl-5-(8-methylimidazo[1,2-a]pyridin-6-yl)-2-pyridyl]-4-piperidyl]-4-methoxy-pyrrolidin-3-amine]: the IC50 was 2.7 nM on human TLR7, 0.3 nM at human TLR8 and 470 nM on TLR9.

For the compound `CCc1nc(N2CCC(N3C[C@@H](N)[C@H](OC)C3)CC2)ccc1-c1cc(C)c2nc(C)cn2c1` [Example 17, (3R,4R)-1-[1-[5-(2,8-dimethylimidazo[1,2-a]pyridin-6-yl)-6-ethyl-2-pyridyl]-4-piperidyl]-4-methoxy-pyrrolidin-3-amine], the IC50 came out at 17.3 nM on human TLR7, 1 nM at human TLR8 and 100 nM at TLR9.

In the case of `CCc1nc(N2CCC(C)(N)CC2)ccc1-c1cc(C)c2nc(C)cn2c1` [Example 20, 1-[5-(2,8-dimethylimidazo[1,2-a]pyridin-6-yl)-6-ethyl-2-pyridyl]-4-methyl-piperidin-4-amine], the IC50 on human TLR7 was 35.8 nM; at human TLR8, 41.8 nM; at TLR9, 500 nM.

As for `CCc1nc(N2CCC(N3CCNCC3)CC2)ccc1-c1cc(C)c2nc(C)cn2c1` [Example 21, 6-[2-ethyl-6-(4-piperazin-1-yl-1-piperidyl)-3-pyridyl]-2,8-dimethyl-imidazo[1,2-a]pyridine], the IC50 at human TLR7 worked out at 5.9 nM; at human TLR8 it was 3.6 nM.

As for `CCc1cc(-c2cc(C)c3nccn3c2)cnc1N1CCC2(CCNCC2)CC1` [Example 22, 3-[3-ethyl-5-(8-methylimidazo[1,2-a]pyridin-6-yl)-2-pyridyl]-3,9-diazaspiro[5.5]undecane], the IC50 on human TLR7 was 3.3 nM; at human TLR8 it was 40 nM.
